The results in this text go back to patent US9340521B2, “Method for dual inhibition of SGLT1 and SGLT2 using diphenylmethane derivatives” (GREEN CROSS CORPORATION, priority 2013, dated 2016).

In one experiment the target is Human SGLT2 (hSGLT2) (Homo sapiens (Human), UniProt P31639). The experiment is described as follows: Inhibitory effects on human SGLT2 activities (14C-AMG uptake, sodium-dependent glucose transport assay). It is filed as cell-based. The note with it: hSGLT2-expressing CHO cells, 37° C. for 2 h, single determinations. From the text: Test 1: Cloning and Cell Line Construction for Human SGLT2
Chain of Human SGLT2 (hSGLT2) (P31639 whole entry): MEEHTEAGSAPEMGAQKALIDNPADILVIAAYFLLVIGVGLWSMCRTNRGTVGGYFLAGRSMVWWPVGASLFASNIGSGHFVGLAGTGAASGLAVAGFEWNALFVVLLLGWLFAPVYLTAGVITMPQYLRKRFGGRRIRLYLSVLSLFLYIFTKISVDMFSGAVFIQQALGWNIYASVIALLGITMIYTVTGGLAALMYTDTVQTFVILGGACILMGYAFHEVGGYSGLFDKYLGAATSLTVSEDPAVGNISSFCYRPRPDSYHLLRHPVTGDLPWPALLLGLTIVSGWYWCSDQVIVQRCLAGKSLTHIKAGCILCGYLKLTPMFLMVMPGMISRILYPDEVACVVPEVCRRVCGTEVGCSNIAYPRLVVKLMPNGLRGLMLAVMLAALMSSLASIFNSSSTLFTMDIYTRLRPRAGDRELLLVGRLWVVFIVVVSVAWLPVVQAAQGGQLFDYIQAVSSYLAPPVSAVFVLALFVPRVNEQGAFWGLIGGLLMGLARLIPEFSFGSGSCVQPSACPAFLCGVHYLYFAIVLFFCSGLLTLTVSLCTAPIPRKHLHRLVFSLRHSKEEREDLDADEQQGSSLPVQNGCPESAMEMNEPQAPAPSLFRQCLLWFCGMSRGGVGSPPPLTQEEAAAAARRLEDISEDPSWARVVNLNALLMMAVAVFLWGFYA
Human SGLT2 (hSGLT2) gene was amplified by PCR from cDNA-Human Adult Normal Tissue Kidney (Invitrogen). The hSGLT2 sequence was cloned into pcDNA3.1(+) for mammalian expression and stably transfected into chinese hamster ovary (CHO) cells. SGLT2-expressing clones were selected based on resistance to G418 antibiotic (Geneticin) and activity in the ^14C-α-methyl-D-glucopyranoside (^14C-AMG) uptake assay.
Test 2: Inhibitory Effects on Human SGLT2 Activities
(§1) For sodium-dependent glucose transport assay, cells expressing hSGLT2 were seeded into a 96-well culture plate at a density of 5×10^4 cells/well in RPMI medium 1640 containing 10% fetal bovine serum. The cells were used 1 day after plating. They were incubated in pretreatment buffer (10 mM HEPES, 5 mM Tris, 140 mM choline chloride, 2 mM KCl, 1 mM CaCl2, and 1 mM MgCl2, pH 7.4) at 37° C. for 10 min. They were then incubated in uptake buffer (10 mM HEPES, 5 mM Tris, 140 mM NaCl, 2 mM KCl, 1 mM CaCl2, 1 mM MgCl2, and 1 mM ^14C-nonlabeled AMG pH 7.4) containing ^14C-labeled AMG (8 μM) and the inventive compound or dimethyl sulfoxide (DMSO) vehicle at 37° C. for 2 h. Cells were washed twice with washing buffer (pretreatment buffer containing 10 mM AMG at room temperature) and then the radioactivity was measured using a liquid scintillation counter. IC50 was determined by nonlinear regression analysis using GraphPad PRISM [Katsuno, K. et al. J. Pharmacol. Exp. Ther. 2007, 320, 323-330; Han, S. et al. Diabetes, 2008, 57, 1723-1729].

A further experiment addresses Human SGLT1 (hSGLT1) (Homo sapiens (Human), UniProt P13866). As to the kind of experiment: Inhibitory effects on human SGLT1 activities (14C-AMG uptake, sodium-dependent glucose transport assay). Type of experiment: cell-based. The note with it: 37° C. for 2 h, single determinations. The method, then:
Test 3: Inhibitory Effects on Human SGLT1 Activities
as §1, with “^14C-labeled” for “^14C-labeled AMG”, “inhibitor” for “the inventive compound”, “PRISM.” for “PRISM [Katsuno, K. et al. J. Pharmacol. Exp. Ther. 2007, 320, 323-330; Han, S. et al. Diabetes, 2008, 57, 1723-1729].”

Chain of Human SGLT1 (hSGLT1) (P13866 whole entry): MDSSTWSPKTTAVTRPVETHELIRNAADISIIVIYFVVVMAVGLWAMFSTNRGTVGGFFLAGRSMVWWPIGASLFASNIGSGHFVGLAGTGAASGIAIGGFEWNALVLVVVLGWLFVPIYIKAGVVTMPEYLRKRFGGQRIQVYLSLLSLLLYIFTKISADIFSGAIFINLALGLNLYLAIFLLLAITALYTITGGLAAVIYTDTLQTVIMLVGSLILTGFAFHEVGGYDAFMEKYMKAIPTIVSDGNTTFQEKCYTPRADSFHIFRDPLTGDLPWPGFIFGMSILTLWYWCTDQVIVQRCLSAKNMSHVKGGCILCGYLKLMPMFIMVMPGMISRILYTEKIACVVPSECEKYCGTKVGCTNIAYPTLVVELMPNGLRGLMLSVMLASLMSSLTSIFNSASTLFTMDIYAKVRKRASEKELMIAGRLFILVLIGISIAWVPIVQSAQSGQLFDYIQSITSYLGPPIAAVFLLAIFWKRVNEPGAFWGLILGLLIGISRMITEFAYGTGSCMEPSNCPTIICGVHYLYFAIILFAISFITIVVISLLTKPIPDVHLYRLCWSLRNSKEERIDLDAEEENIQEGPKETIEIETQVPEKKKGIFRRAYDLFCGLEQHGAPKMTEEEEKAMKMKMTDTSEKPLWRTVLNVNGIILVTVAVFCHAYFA

In the case of `COc1ccc(Cc2cc([C@@H]3O[C@H](CO)[C@@H](O)[C@H](O)[C@H]3O)c3c(c2Br)CCC3)cc1` [Compound E001, (2S,3R,4R,5S,6R)-2-(7-Bromo-6-(4-methoxybenzyl)-2,3-dihydro-1H-inden-4-yl)-6-(hydroxymethyl)tetrahydro-2H-pyran-3,4,5-triol], the IC50 is 0.44 nM against Human SGLT2 (hSGLT2) and 15.2 nM on Human SGLT1 (hSGLT1).

For the compound `CCOc1ccc(Cc2cc([C@@H]3O[C@H](CO)[C@@H](O)[C@H](O)[C@H]3O)c3c(c2Br)CCC3)cc1` [Compound E002, (2S,3R,4R,5S,6R)-2-(7-Bromo-6-(4-ethoxybenzyl)-2,3-dihydro-1H-inden-4-yl)-6-(hydroxymethyl)tetrahydro-2H-pyran-3,4,5-triol], the IC50 is 0.75 nM on Human SGLT2 (hSGLT2) and 62.7 nM at Human SGLT1 (hSGLT1).

Regarding `CCc1ccc(Cc2cc([C@@H]3O[C@H](CO)[C@@H](O)[C@H](O)[C@H]3O)c3c(c2Br)CCC3)cc1` [Compound E003, (2S,3R,4R,5S,6R)-2-(7-Bromo-6-(4-ethylbenzyl)-2,3-dihydro-1H-inden-4-yl)-6-(hydroxymethyl)tetrahydro-2H-pyran-3,4,5-triol], the IC50 at Human SGLT2 (hSGLT2) is 0.61 nM; on Human SGLT1 (hSGLT1) it was 45.4 nM.

Take `COc1ccc(Cc2cc([C@@H]3O[C@H](CO)[C@@H](O)[C@H](O)[C@H]3O)c3c(c2Cl)CCC3)cc1` [Compound E004, (2S,3R,4R,5S,6R)-2-(7-Chloro-6-(4-methoxybenzyl)-2,3-dihydro-1H-inden-4-yl)-6-(hydroxymethyl)tetrahydro-2H-pyran-3,4,5-triol]: the IC50 came out at 0.68 nM at Human SGLT2 (hSGLT2) and 37.2 nM on Human SGLT1 (hSGLT1).

For `COc1ccc(Cc2cc([C@@H]3O[C@H](CO)[C@@H](O)[C@H](O)[C@H]3O)c3c(c2C)CCC3)cc1` [Compound E005, (2R,3S,4R,5R,6S)-2-(Hydroxymethyl)-6-(6-(4-methoxybenzyl)-7-methyl-2,3-dihydro-1H-inden-4-yl)tetrahydro-2H-pyran-3,4,5-triol], the half-inhibitory concentration (IC50) at Human SGLT2 (hSGLT2) was 0.79 nM; at Human SGLT1 (hSGLT1), 26.8 nM.

Regarding `CCOc1ccc(Cc2cc([C@@H]3O[C@H](CO)[C@@H](O)[C@H](O)[C@H]3O)c3c(c2Cl)CCC3)cc1` [Compound E006, (2S,3R,4R,5S,6R)-2-(7-Chloro-6-(4-ethoxybenzyl)-2,3-dihydro-1H-inden-4-yl)-6-(hydroxymethyl)tetrahydro-2H-pyran-3,4,5-triol], the results for the IC50 at Human SGLT2 (hSGLT2) and against Human SGLT1 (hSGLT1) were 0.55 nM and 116 nM, respectively.

Turning to `CCOc1ccc(Cc2cc([C@@H]3O[C@H](CO)[C@@H](O)[C@H](O)[C@H]3O)c3c(c2C)CCC3)cc1` [Compound E007, (2S,3R,4R,5S,6R)-2-(6-(4-Ethoxybenzyl)-7-methyl-2,3-dihydro-1H-inden-4-yl)-6-(hydroxymethyl)tetrahydro-2H-pyran-3,4,5-triol], on Human SGLT1 (hSGLT1), the IC50 amounted to 160 nM.

As for `CCc1ccc(Cc2cc([C@@H]3O[C@H](CO)[C@@H](O)[C@H](O)[C@H]3O)c3c(c2Cl)CCO3)cc1` [Compound E008, (2S,3R,4R,5S,6R)-2-(4-Chloro-5-(4-ethylbenzyl)-2,3-dihydrobenzofuran-7-yl)-6-(hydroxymethyl)tetrahydro-2H-pyran-3,4,5-triol], the IC50 against Human SGLT2 (hSGLT2) was found to be 0.88 nM; against Human SGLT1 (hSGLT1), 44 nM.

`CCOc1ccc(Cc2cc([C@@H]3O[C@H](CO)[C@@H](O)[C@H](O)[C@H]3O)c3c(c2Cl)CCCO3)cc1` [Compound E009, (2S,3R,4R,5S,6R)-2-(5-Chloro-6-(4-ethoxybenzyl)chroman-8-yl)-6-(hydroxymethyl)tetrahydro-2H-pyran-3,4,5-triol]: the figures for the IC50 against Human SGLT2 (hSGLT2) and at Human SGLT1 (hSGLT1) were 1.6 nM and 77.2 nM, respectively.

`COc1ccc(Cc2cc([C@@H]3O[C@H](CO)[C@@H](O)[C@H](O)[C@H]3O)c3c(c2Cl)CCCO3)cc1` [Compound E010, (2S,3R,4R,5S,6R)-2-(5-Chloro-6-(4-methoxybenzyl)chroman-8-yl)-6-(hydroxymethyl)tetrahydro-2H-pyran-3,4,5-triol]: the IC50 on Human SGLT2 (hSGLT2) stood at 1.6 nM; on Human SGLT1 (hSGLT1) it was 16.9 nM.

Turning to `CCc1ccc(Cc2cc([C@@H]3O[C@H](CO)[C@@H](O)[C@H](O)[C@H]3O)c3c(c2Cl)CCCO3)cc1` [Compound E011, (2S,3R,4R,5S,6R)-2-(5-Chloro-6-(4-ethylbenzyl)chroman-8-yl)-6-(hydroxymethyl)tetrahydro-2H-pyran-3,4,5-triol], the IC50 turned out to be 0.85 nM against Human SGLT2 (hSGLT2) and 27 nM against Human SGLT1 (hSGLT1).

For the compound `COc1ccc(Cc2cc([C@@H]3O[C@H](CO)[C@@H](O)[C@H](O)[C@H]3O)c3c(c2Cl)CCO3)cc1` [Compound E012, (2S,3R,4R,5S,6R)-2-(4-Chloro-5-(4-methoxybenzyl)-2,3-dihydrobenzofuran-7-yl)-6-(hydroxymethyl)tetrahydro-2H-pyran-3,4,5-triol], the results for the IC50 at Human SGLT2 (hSGLT2) and on Human SGLT1 (hSGLT1) were 1.7 nM and 34.4 nM, respectively.

With `CCOc1ccc(Cc2cc([C@@H]3O[C@H](CO)[C@@H](O)[C@H](O)[C@H]3O)c3c(c2Cl)CCO3)cc1` [Compound E013, (2S,3R,4R,5S,6R)-2-(4-Chloro-5-(4-ethoxybenzyl)-2,3-dihydrobenzofuran-7-yl)-6-(hydroxymethyl)tetrahydro-2H-pyran-3,4,5-triol], the IC50 at Human SGLT2 (hSGLT2) turned out to be 0.83 nM; against Human SGLT1 (hSGLT1) it was 105 nM.

In the case of `CCc1ccc(Cc2cc([C@@H]3O[C@H](CO)[C@@H](O)[C@H](O)[C@H]3O)c3c(c2Cl)OCCC3)cc1` [Compound E014, (2S,3R,4R,5S,6R)-2-(8-Chloro-7-(4-ethylbenzyl)chroman-5-yl)-6-(hydroxymethyl)tetrahydro-2H-pyran-3,4,5-triol], the IC50 was 0.75 nM against Human SGLT2 (hSGLT2) and 61.5 nM against Human SGLT1 (hSGLT1).

Compound `COc1ccc(Cc2cc([C@@H]3O[C@H](CO)[C@@H](O)[C@H](O)[C@H]3O)c3c(c2Cl)OCCO3)cc1` [Compound E015, (2S,3R,4R,5S,6R)-2-(8-Chloro-7-(4-methoxybenzyl)-2,3-dihydrobenzo[b][1,4]dioxin-5-yl)-6-(hydroxymethyl)tetrahydro-2H-pyran-3,4,5-triol] came in with an IC50 at Human SGLT1 (hSGLT1) of 34 nM.

For the compound `CCc1ccc(Cc2cc([C@@H]3O[C@H](CO)[C@@H](O)[C@H](O)[C@H]3O)c3c(c2Cl)OCCO3)cc1` [Compound E016, (2S,3R,4R,5S,6R)-2-(8-Chloro-7-(4-ethylbenzyl)-2,3-dihydrobenzo[b][1,4]dioxin-5-yl)-6-(hydroxymethyl)tetrahydro-2H-pyran-3,4,5-triol], the IC50 on Human SGLT2 (hSGLT2) was 0.92 nM; against Human SGLT1 (hSGLT1) it was 83 nM.

Regarding `OC[C@H]1O[C@@H](c2cc(Cc3ccc(C4CC4)cc3)c(Cl)c3c2OCC3)[C@H](O)[C@@H](O)[C@@H]1O` [Compound E017, (2S,3R,4R,5S,6R)-2-(4-Chloro-5-(4-cyclopropylbenzyl)-2,3-dihydrobenzofuran-7-yl)-6-(hydroxymethyl)tetrahydro-2H-pyran-3,4,5-triol], the IC50 against Human SGLT2 (hSGLT2) came to 1.1 nM; against Human SGLT1 (hSGLT1), 52.2 nM.

As to `OC[C@H]1O[C@@H](c2cc(Cc3ccc(C4CC4)cc3)c(Cl)c3c2OCCC3)[C@H](O)[C@@H](O)[C@@H]1O` [Compound E018, (2S,3R,4R,5S,6R)-2-(5-Chloro-6-(4-cyclopropylbenzyl)chroman-8-yl)-6-(hydroxymethyl)tetrahydro-2H-pyran-3,4,5-triol], the IC50 against Human SGLT2 (hSGLT2) came to 0.85 nM; on Human SGLT1 (hSGLT1), 26.6 nM.

Consider `CCc1ccc(Cc2cc([C@@H]3O[C@H](CO)[C@@H](O)[C@H](O)[C@H]3O)c3c(c2Cl)CC(C)S3)cc1` (stereo partly drawn) [Compound E019, (2S,3R,4R,5S,6R)-2-(4-Chloro-5-(4-ethylbenzyl)-2-methyl-2,3-dihydrobenzo[b]thiophen-7-yl)-6-(hydroxymethyl)tetrahydro-2H-pyran-3,4,5-triol], for which the IC50 on Human SGLT2 (hSGLT2) turned out to be 0.98 nM; at Human SGLT1 (hSGLT1) it was 111 nM.

In the case of `CCOc1ccc(Cc2cc([C@@H]3O[C@H](SC)[C@@H](O)[C@H](O)[C@H]3O)c3c(c2Cl)CC(C)O3)cc1` (stereo partly drawn) [Compound E020, (2S,3R,4R,5S,6R)-2-(4-Chloro-5-(4-ethoxybenzyl)-2-methyl-2,3-dihydrobenzofuran-7-yl)-6-(methylthio)tetrahydro-2H-pyran-3,4,5-triol], the figures for the IC50 at Human SGLT2 (hSGLT2) and against Human SGLT1 (hSGLT1) were 0.69 nM and 115 nM, respectively.
